Data taken from patent US20170291890A1 (Epizyme, Inc., priority 2014, published 2017).
Read-outs that look alike come from different tables or passages of the source.

How the values were obtained:
KDM4A = target: T1, KDM4A (Homo sapiens, UniProt O75164); assay: KDM4A Assay (SAMDI mass spectrometry demethylase assay); type: biochemical; conditions: N-terminal His-tagged KDM4A 1-350, read-out: 4A IC50
T1 construct: N-terminal His-tagged KDM4A^1-350 was purchased from BPS Biosciences; His (N); purchased BPS Biosciences
T1 sequence (O75164 1-350): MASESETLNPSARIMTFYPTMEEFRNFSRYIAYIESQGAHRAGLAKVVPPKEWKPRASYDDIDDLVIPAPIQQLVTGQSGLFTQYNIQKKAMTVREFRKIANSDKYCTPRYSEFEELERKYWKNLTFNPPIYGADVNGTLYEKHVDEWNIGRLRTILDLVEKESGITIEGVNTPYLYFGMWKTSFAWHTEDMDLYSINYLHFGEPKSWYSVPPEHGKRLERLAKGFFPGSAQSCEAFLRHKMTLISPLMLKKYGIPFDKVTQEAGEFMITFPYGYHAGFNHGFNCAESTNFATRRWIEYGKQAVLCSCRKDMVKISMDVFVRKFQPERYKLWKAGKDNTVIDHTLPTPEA
Method in brief: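 His-tagged KDM4A 1-350 (5 nM final) was preincubated 30 min with compound (10 μM final for screening) in 50 mM HEPES pH 8.0 with ascorbate, 10 μM Fe(II) and TCEP. Biotinylated Kme2 peptide (600 nM) and 2-oxoglutarate (5 μM) reacted 120 min at 25°C before a formic acid stop. SAMDI-MS % conversion from substrate and product peak areas; IC50 from dose-response.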

KDM4C = target: T2, KDM4C (Homo sapiens, UniProt Q9H3R0); assay: KDM4C Assay (SAMDI mass spectrometry demethylase assay); type: biochemical; conditions: N-terminal GST-tagged KDM4C 2-372, read-out: 4C IC50
T2 construct: N-terminal GST-tagged KDM4C^2-372 was purchased from BPS Biosciences; GST (N); purchased BPS Biosciences
T2 sequence (Q9H3R0 2-372): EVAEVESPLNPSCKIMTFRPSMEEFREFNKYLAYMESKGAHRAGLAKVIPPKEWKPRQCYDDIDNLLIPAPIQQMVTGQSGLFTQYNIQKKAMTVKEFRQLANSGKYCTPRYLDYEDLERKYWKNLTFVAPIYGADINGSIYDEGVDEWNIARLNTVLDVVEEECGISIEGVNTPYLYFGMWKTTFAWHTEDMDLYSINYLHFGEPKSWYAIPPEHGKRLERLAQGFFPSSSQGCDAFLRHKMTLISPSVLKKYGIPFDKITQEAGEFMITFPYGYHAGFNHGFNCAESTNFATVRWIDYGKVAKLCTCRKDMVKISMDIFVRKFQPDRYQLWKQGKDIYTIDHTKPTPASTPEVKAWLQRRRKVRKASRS
Method in brief: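 GST-tagged KDM4C 2-372 (5 nM) preincubated 30 min with compound, then H3K9me3 biotinylated peptide (500 nM) and 2-oxoglutarate (15 μM) added in HEPES pH 8.0 with ascorbate, Fe(II), TCEP; 150 min at 25 °C, formic-acid quench. Conversion by SAMDI mass spectrometry from substrate/product peak AUC; IC50 from dose-response.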

| SMILES | IC50 (KDM4A; numeric value) | IC50 (KDM4C; class symbols) | IC50 (KDM4A; class symbols) | IC50 (KDM4C; numeric bound) |
| --- | --- | --- | --- | --- |
| CN1CCC(n2ncc(Nc3cnccc3C(=O)O)c2-c2ccccc2)CC1 [Compound 126, 3-(1-(1-methylpiperidin-4-yl)-5-phenyl-1H-pyrazol-4-ylamino) isonicotinic acid] | 1490 nM | 1000 to 10000 nM |  |  |
| Cc1nn(C2CCN(C3CCC3)CC2)cc1Nc1cnccc1C(=O)O [Compound 94, 3-(1-(1-cyclobutylpiperidin-4-yl)-3-methyl-1H-pyrazol-4-ylamino)isonicotinic acid] |  | 100 to 1000 nM | 1 to 100 nM |  |
| Cc1ccc(-n2cc(Nc3cnccc3C(=O)O)c(C)n2)cc1 [Compound 82] |  | 1 to 100 nM | 1 to 100 nM |  |
| Cc1nn(C2CCN(C3CN(C)C3)CC2)cc1Nc1cnccc1C(=O)O [Compound 91, 3-(3-methyl-1-(1-(1-methylazetidin-3-yl)piperidin-4-yl)-1H-pyrazol-4-ylamino)isonicotinic acid] |  | 1000 to 10000 nM | 100 to 1000 nM |  |
| COC(=O)c1ccncc1Nc1cnn(C2CCN(C3CCC3)CC2)c1C [Compound 95, methyl 3-((1-(1-cyclobutylpiperidin-4-yl)-5-methyl-1H-pyrazol-4-yl)amino)isonicotinate] |  | 10000 to 100000 nM | 10000 to 100000 nM |  |
| Cn1ncc(-c2cccnc2)c1Nc1cnccc1C(=O)O [Compound 4] |  | 1000 to 10000 nM | 1000 to 10000 nM |  |
| NC1CCC(n2nc(-c3cccc(Cl)c3)cc2Nc2cnccc2C(=O)O)CC1 (stereo not shown) [Compound 85, 3-((1-(4-aminocyclohexyl)-3-(3-chlorophenyl)-1H-pyrazol-5-yl)amino)isonicotinic acid] |  | 1000 to 10000 nM | 1000 to 10000 nM |  |
| NC1CCC(n2nc(Nc3cnccc3C(=O)O)cc2-c2cccc(Cl)c2)CC1 (stereo not shown) [Compound 87, 3-((1-(4-aminocyclohexyl)-5-(3-chlorophenyl)-1H-pyrazol-3-yl)amino)isonicotinic acid] |  | 10000 to 100000 nM | 10000 to 100000 nM |  |
| CCc1c(Nc2cnccc2C(=O)O)cnn1-c1ccccc1 [Compound 81, 3-((5-ethyl-1-phenyl-1H-pyrazol-4-yl)amino)isonicotinic acid] |  | 1 to 100 nM | 1 to 100 nM |  |
| Cc1nn(C2CCN(CC3CC3)CC2)cc1Nc1cnccc1C(=O)O [Compound 89, 3-(1-(1-(cyclopropylmethyl)piperidin-4-yl)-3-methyl-1H-pyrazol-4-ylamino)isonicotinic acid] |  | 100 to 1000 nM | 1 to 100 nM |  |
| O=C(O)c1ccncc1Nc1cc(-c2cccc(Cl)c2)n(C2CCC3(CC2)OCCO3)n1 [Compound 86, 3-((5-(3-chlorophenyl)-1-(1,4-dioxaspiro[4.5]decan-8-yl)-1H-pyrazol-3-yl)amino)isonicotinic acid] |  | 1000 to 10000 nM | 100 to 1000 nM |  |
| Cc1c(Nc2cnccc2C(=O)O)cnn1C1CCN(CC2CC2)CC1 [Compound 90, 3-(1-(1-(cyclopropylmethyl)piperidin-4-yl)-5-methyl-1H-pyrazol-4-ylamino) isonicotinic acid] |  | 100 to 1000 nM | 100 to 1000 nM |  |
| Cn1nc(Nc2cnccc2C(=O)O)cc1-c1ccccc1 [Compound 5] |  | 100 to 1000 nM | 100 to 1000 nM |  |
| Cc1c(Nc2cnccc2C(=O)O)cnn1C1CCN(C2CN(C)C2)CC1 [Compound 92, 3-(5-methyl-1-(1-(1-methylazetidin-3-yl)piperidin-4-yl)-1H-pyrazol-4-ylamino)isonicotinic acid] |  | 100 to 1000 nM | 100 to 1000 nM |  |
| Cc1nn([C@H]2CC[C@@H](N)CC2)cc1Nc1cnccc1C(=O)O [Compound 80, 3-((1-((cis)-4-aminocyclohexyl)-3-methyl-1H-pyrazol-4-yl)amino)isonicotinic acid] |  | 100 to 1000 nM | 100 to 1000 nM |  |
| COC(=O)c1ccncc1Nc1cn(C2CCN(C3CCC3)CC2)nc1C [Compound 93, methyl 3-((1-(1-cyclobutylpiperidin-4-yl)-3-methyl-1H-pyrazol-4-yl)amino)isonicotinate] |  |  | 10000 to 100000 nM | > 100000 nM |
| O=C(O)c1ccncc1Nc1nn(-c2ccccc2)cc1-c1ccncc1 [Compound 88, 3-((1-phenyl-4-(pyridin-4-yl)-1H-pyrazol-3-yl)amino) isonicotinic acid] |  | 1 to 100 nM | 100 to 1000 nM |  |
